Measured values as given in PubChem BioAssay AID743377 (Vanderbilt Specialized Chemistry Center, 2014).
Calls of active or inactive are those of the source. No rule for the calls is given here.

Biological target: D(2) dopamine receptor (Homo sapiens) (UniProt P14416)
Experiment: human DRD2 long isoform antagonists – cell-based, D2L isoform, counter-screen for D4 antagonist project, confirmation (AID 743377)
Conditions: D2L-expressing cells, antagonist counterscreen, functional read-out

Chain of D(2) dopamine receptor (Homo sapiens) (P14416 whole entry, looked up, canonical isoform): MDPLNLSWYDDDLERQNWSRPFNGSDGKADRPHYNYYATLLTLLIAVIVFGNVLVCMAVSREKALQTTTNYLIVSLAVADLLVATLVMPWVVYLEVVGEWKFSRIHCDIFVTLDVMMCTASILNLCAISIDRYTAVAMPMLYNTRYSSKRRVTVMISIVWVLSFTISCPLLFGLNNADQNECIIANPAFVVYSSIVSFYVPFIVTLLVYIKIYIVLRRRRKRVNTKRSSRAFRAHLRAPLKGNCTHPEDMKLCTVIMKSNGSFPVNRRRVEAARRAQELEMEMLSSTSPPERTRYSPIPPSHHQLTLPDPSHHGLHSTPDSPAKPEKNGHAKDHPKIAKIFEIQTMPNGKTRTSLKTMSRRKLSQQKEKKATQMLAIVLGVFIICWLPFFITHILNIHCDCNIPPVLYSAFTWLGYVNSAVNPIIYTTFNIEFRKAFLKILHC

`Clc1ccc(CN2CCO[C@H](CCc3ccccc3)C2)cc1` was tested. Which IC50 did it give?
Its IC50 is > 20 µM (inactive).
